PubChem BioAssay AID248 (DTP/NCI, 2004)
Where “and” joins values, the source holds several entries; their conditions need not be identical. Identical values can stand only once. Toxic doses and inconclusive results are not listed. Cut-off read from the data, not from the text of the source: active = T/C of 150% or more; inactive = T/C below 125%.

System: L1210 leukemia ip in BDF1 mice, survival T/C
Assay: NCI In Vivo Anticancer Drug Screen. Data for tumor model L1210 Leukemia (intraperitoneal) in B6D2F1 (BDF1) mice
Conditions: endpoint: mean survival time, higher = longer survival
How it was run: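 In this screen, tumor-bearing mice given compound are compared to those given vehicle, and their survival values are reported as a treated-to-control quotient.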

Measured: T/C

Cc1ccc(S(=O)(=O)OCC2C(COS(=O)(=O)c3ccc(C)cc3)C3C4C5C2C2C3C4C52)cc1 (stereo not drawn)
inactive: dose: 100.0 mg/kg/injection, schedule: Q04DX002 (ip), vehicle: Klucel (hydroxypropylcellulose) (HPC) 98 % of control | dose: 200.0 mg/kg/injection, schedule: Q04DX002 (ip), vehicle: Klucel (hydroxypropylcellulose) (HPC) 90 % of control | dose: 400.0 mg/kg/injection, schedule: Q04DX002 (ip), vehicle: Klucel (hydroxypropylcellulose) (HPC) 94 % of control

O[C@H]1[C@H]2c3cc4c(cc3CN3CCC(=C[C@@H]1O)[C@H]23)OCO4
inactive: dose: 50.0 mg/kg/injection, schedule: Q01DX Z (ip), vehicle: steriod suspending solution 120 % of control | dose: 75.0 mg/kg/injection, schedule: Q01DX Z (ip), vehicle: steriod suspending solution 96 % of control and 105 % of control | dose: 100.0 mg/kg/injection, schedule: Q01DX Z (ip), vehicle: steriod suspending solution 114 % of control

CCN(CCO)CCNc1ccc(CO)c2sc3cc(Cl)ccc3c(=O)c12
inactive: dose: 50.0 mg/kg/injection, schedule: Q01DX009 (ip), vehicle: Klucel (hydroxypropylcellulose) (HPC) 91 % of control | dose: 100.0 mg/kg/injection, schedule: Q01DX009 (ip), vehicle: Klucel (hydroxypropylcellulose) (HPC) 96 % of control | dose: 200.0 mg/kg/injection, schedule: Q01DX009 (ip), vehicle: Klucel (hydroxypropylcellulose) (HPC) 91 % of control

Cn1c(=O)c2c(nc(N/N=C/c3cccc4ccccc34)n2C)n(C)c1=O
inactive: dose: 44.0 mg/kg/injection, schedule: Q01DX Z (ip), vehicle: saline 90 % of control | dose: 66.0 mg/kg/injection, schedule: Q01DX Z (ip), vehicle: saline 94 % of control | dose: 100.0 mg/kg/injection, schedule: Q01DX Z (ip), vehicle: saline 92 % of control

COC(=O)c1ccc(N(C)Cc2cnc3[nH]c(N)nc(=S)c3n2)cc1
inactive: dose: 50.0 mg/kg/injection, schedule: Q01DX001 (ip), vehicle: saline with Tween-80 100 % of control | dose: 100.0 mg/kg/injection, schedule: Q01DX001 (ip), vehicle: saline with Tween-80 94 % of control | dose: 200.0 mg/kg/injection, schedule: Q01DX001 (ip), vehicle: saline with Tween-80 94 % of control

CN(N=O)C(=O)NC1C(CO)OC2OC(C)(C)OC21 (stereo not drawn)
inactive: dose: 100.0 mg/kg/injection, schedule: Q01DX009 (ip), vehicle: saline sonified 124 % of control | dose: 400.0 mg/kg/injection, schedule: Q01DX009 (ip), vehicle: saline sonified 119 % of control

CCNC(C)(C)C(O)c1ccc(Cl)s1 (stereo not drawn)
inactive: dose: 100.0 mg/kg/injection, schedule: Q01DX009 (ip), vehicle: saline with Tween-80 98 % of control | dose: 100.0 mg/kg/injection, schedule: Q04DX003 (ip), vehicle: saline with Tween-80 100 % of control | dose: 200.0 mg/kg/injection, schedule: Q01DX009 (ip), vehicle: saline with Tween-80 98 % of control | dose: 200.0 mg/kg/injection, schedule: Q04DX003 (ip), vehicle: saline with Tween-80 102 % of control | dose: 400.0 mg/kg/injection, schedule: Q04DX003 (ip), vehicle: saline with Tween-80 103 % of control

CNC1=CC(=O)C1(F)F
inactive: dose: 12.5 mg/kg/injection, schedule: Q01DX001 (ip), vehicle: Klucel (hydroxypropylcellulose) (HPC) 101 % of control | dose: 25.0 mg/kg/injection, schedule: Q01DX001 (ip), vehicle: Klucel (hydroxypropylcellulose) (HPC) 108 % of control | dose: 50.0 mg/kg/injection, schedule: Q01DX001 (ip), vehicle: Klucel (hydroxypropylcellulose) (HPC) 108 % of control

Cc1ccccc1N=C(N)Nc1ccccc1C
inactive: dose: 2.5 mg/kg/injection, schedule: Q01DX009 (ip), vehicle: saline with Tween-80 103 % of control | dose: 5.0 mg/kg/injection, schedule: Q01DX001 (ip), vehicle: carboxymethylcellulose (CMC) 108 % of control | dose: 5.0 mg/kg/injection, schedule: Q01DX009 (ip), vehicle: saline with Tween-80 97 % of control | dose: 6.25 mg/kg/injection, schedule: Q01DX009 (ip), vehicle: other 95 % of control | dose: 6.25 mg/kg/injection, schedule: Q04DX003 (ip), vehicle: other 96 % of control | dose: 10.0 mg/kg/injection, schedule: Q01DX001 (ip), vehicle: carboxymethylcellulose (CMC) 114 % of control | dose: 10.0 mg/kg/injection, schedule: Q01DX009 (ip), vehicle: saline with Tween-80 97 % of control | dose: 12.5 mg/kg/injection, schedule: Q01DX001 (ip), vehicle: other 96 % of control | dose: 12.5 mg/kg/injection, schedule: Q01DX009 (ip), vehicle: other 95 % of control | dose: 12.5 mg/kg/injection, schedule: Q04DX003 (ip), vehicle: other 93 % of control | dose: 20.0 mg/kg/injection, schedule: Q01DX001 (ip), vehicle: carboxymethylcellulose (CMC) 117 % of control | dose: 25.0 mg/kg/injection, schedule: Q01DX001 (ip), vehicle: other 96 % of control | dose: 25.0 mg/kg/injection, schedule: Q01DX009 (ip), vehicle: other 94 % of control | dose: 25.0 mg/kg/injection, schedule: Q04DX003 (ip), vehicle: other 100 % of control

COc1cc(Br)c2c(c1OC)C1(CC[N+](C)(C)C)CC(=O)CCC1CC2 (stereo not drawn)
inactive: dose: 12.5 mg/kg/injection, schedule: Q01DX001 (ip), vehicle: saline 97 % of control | dose: 25.0 mg/kg/injection, schedule: Q01DX001 (ip), vehicle: saline 97 % of control | dose: 50.0 mg/kg/injection, schedule: Q01DX001 (ip), vehicle: saline 94 % of control | dose: 100.0 mg/kg/injection, schedule: Q01DX001 (ip), vehicle: saline 97 % of control
